Data reported in ChEMBL document CHEMBL4819019, “Design, synthesis, antibacterial activity and toxicity of novel quaternary ammonium compounds based on pyridoxine and fatty acids” (Eur J Med Chem, 2021).
The source made the active and inactive calls. No cut-off for these calls is given here.

Assays:
[1] = system: Klebsiella sp.; test: Antibacterial activity against clinical isolate Klebsiella sp. 11 measured after 24 hrs by broth microdilution method; assay type: functional
[2] = system: Staphylococcus ureilyticus; test: Antibacterial activity against clinical isolate Staphylococcus ureilyticus 1972 measured after 24 hrs by broth microdilution method; assay type: functional
[3] = system: Pseudomonas sp.; test: Antibacterial activity against clinical isolate Pseudomonas sp. 5 measured after 24 hrs by broth microdilution method; assay type: functional
[4] = system: Staphylococcus intermedius; test: Antibacterial activity against clinical isolate methicillin-resistant Staphylococcus intermedius 1143 measured after 24 hrs by broth microdilution method; assay type: functional
[5] = system: Staphylococcus aureus; test: Antibacterial activity against clinical isolate methicillin-resistant Staphylococcus aureus 713 measured after 24 hrs by broth microdilution method; assay type: functional
[6] = system: Klebsiella pneumoniae; test: Antibacterial activity against clinical isolate Klebsiella pneumoniae 1813 measured after 24 hrs by broth microdilution method; assay type: functional
[7] = system: Staphylococcus aureus; test: Antibacterial activity against Staphylococcus aureus ATCC 29213 measured after 24 hrs by broth microdilution method; assay type: functional
[8] = system: Cell membrane; test: Induction of cell membrane damage in Escherichia coli assessed as decrease in flourescence measured for 35 mins with 5 min interval by DioC2(3) based flourescence method
[9] = system: Bacillus subtilis; test: Antibacterial activity against Bacillus subtilis 168 measured after 24 hrs by broth microdilution method; assay type: functional
[10] = system: Enterococcus faecalis; test: Antibacterial activity against clinical isolate Enterococcus faecalis 3063 measured after 24 hrs by broth microdilution method; assay type: functional
[11] = Antibiofilm activity against biofilm-embedded Staphylococcus aureus/Pseudomonas aeruginosa assessed as reduction in viable cells upto 512 mg/L measured after 24 hrs by drop plate based dual species biofilm assay; assay type: functional, cell-based; conditions: dose mg/L <=512, time 24.0 hrs
[12] = system: Micrococcus luteus; test: Antibiofilm activity against biofilm-embedded Micrococcus luteus assessed as reduction in log CFU at 1 to 32 times of MBC measured after 24 hrs by drop plate assay; assay type: functional, organism-based
[13] = system: Staphylococcus aureus; test: Antibacterial activity against Staphylococcus aureus assessed as fold increase in MIC after 8 passages by serial dilution method; assay type: functional, organism-based; conditions: time 24.0 hrs
[14] = system: Proteus sp.; test: Antibacterial activity against clinical isolate Proteus sp. 17 measured after 24 hrs by broth microdilution method; assay type: functional; conditions: Proteus sp. (in: enterobacteria)
[15] = Genotoxicity in Salmonella typhimurium TA1535/pSK1002 assessed as DNA-damage activity by measuring beta-galactosidase activity at 750 ug/ml measured by SOS-chromotest relative to solvent control; assay type: toxicity; conditions: salmonella enterica subsp. enterica serovar typhimurium; dose 750 µg/ml
[16] = Genotoxicity in Salmonella typhimurium TA98 assessed as number of revertant by Ames spot test relative to solvent control; assay type: toxicity; conditions: salmonella enterica subsp. enterica serovar typhimurium
[17] = system: Staphylococcus aureus; test: Antibacterial activity against clinical isolate Staphylococcus aureus 25 measured after 24 hrs by broth microdilution method; assay type: functional
[18] = system: Moraxella; test: Antibacterial activity against clinical isolate Moraxella 765 measured after 24 hrs by broth microdilution method; assay type: functional
[19] = system: Pseudomonas aeruginosa; test: Antibiofilm activity against biofilm-embedded Pseudomonas aeruginosa assessed as reduction in log CFU at 1 to 32 times of MBC measured after 24 hrs by drop plate assay; assay type: functional, organism-based
[20] = Genotoxicity in Salmonella typhimurium TA1535/pSK1002 assessed as DNA-damage activity by measuring beta-galactosidase activity at 150 ug/ml measured by SOS-chromotest relative to solvent control; assay type: toxicity; conditions: salmonella enterica subsp. enterica serovar typhimurium; dose 150 µg/ml
[21] = Lipophilicity, logP of the compound; assay type: physicochemical; conditions: octanol/water
[22] = Cytotoxicity against human mesenchymal stem cells assessed as cell viability measured after 72 hrs by MTT assay; assay type: cell-based
[23] = system: Escherichia coli; test: Antibacterial activity against Escherichia coli MG 1655 measured after 24 hrs by broth microdilution method; assay type: functional
[24] = Acute toxicity in topically treated C57BL/6CBA mouse measured upto 14 days; conditions: in vivo, topical or ocular, time <=14 day
[25] = system: Staphylococcus aureus; test: Antibacterial activity against clinical isolate methicillin-resistant Staphylococcus aureus 1053 measured after 24 hrs by broth microdilution method; assay type: functional
[26] = Cytotoxicity against human HEK293 cells assessed as cell viability measured after 72 hrs by MTT assay; assay type: cell-based
[27] = system: Staphylococcus aureus; test: Antibacterial activity against clinical isolate methicillin-resistant Staphylococcus aureus 1065 measured after 24 hrs by broth microdilution method; assay type: functional
[28] = Cytotoxicity against human skin fibroblasts assessed as cell viability measured after 72 hrs by MTT assay; assay type: cell-based, Fibroblast
[29] = Antibiofilm activity against biofilm-embedded Staphylococcus aureus/Escherichia coli assessed as reduction in viable cells upto 512 mg/L measured after 24 hrs by drop plate based dual species biofilm assay; assay type: functional, cell-based; conditions: dose mg/L <=512, time 24.0 hrs
[30] = system: Staphylococcus aureus; test: Antibiofilm activity against biofilm-embedded Staphylococcus aureus assessed as reduction in log CFU at 1 to 32 times of MBC measured after 24 hrs by drop plate assay; assay type: functional, organism-based
[31] = Acute toxicity in C57BL/6CBA mouse assessed as pale kidneys at 2000 mg/kg, po after 7 days; assay type: organism-based; conditions: in vivo, 168 h, time 7 day
[32] = Acute toxicity in C57BL/6CBA mouse assessed as necropsy measured at 2500 mg/kg treated as single topically measured after 14 days; assay type: organism-based; conditions: in vivo, topical_or_ocular, 336 h, time 14 day
[33] = Acute toxicity in topically treated C57BL/6CBA mouse assessed as death measured at 2500 mg/kg treated as single topically measured after 14 days; assay type: organism-based; conditions: in vivo, topical_or_ocular, 336 h, time 14 day
[34] = system: Escherichia coli; test: Antibacterial activity against clinical isolate Escherichia coli 718 measured after 24 hrs by broth microdilution method; assay type: functional
[35] = Genotoxicity in Salmonella typhimurium TA100 assessed as number of revertant by Ames spot test relative to solvent control; assay type: toxicity; conditions: salmonella enterica subsp. enterica serovar typhimurium
[36] = Genotoxicity in Salmonella typhimurium TA1537 assessed as number of revertant by Ames spot test relative to solvent control; assay type: toxicity; conditions: salmonella enterica subsp. enterica serovar typhimurium
[37] = system: Micrococcus luteus; test: Antibacterial activity against Micrococcus luteus clinical isolate measured after 24 hrs by broth microdilution method; assay type: functional
[38] = system: Escherichia coli; test: Antibiofilm activity against biofilm-embedded Escherichia coli assessed as reduction in log CFU at 1 to 32 times of MBC measured after 24 hrs by drop plate assay; assay type: functional, organism-based
[39] = system: Staphylococcus aureus; test: Antibacterial activity against clinical isolate methicillin-resistant Staphylococcus aureus 1131 measured after 24 hrs by broth microdilution method; assay type: functional
[40] = system: Pseudomonas aeruginosa; test: Antibacterial activity against Pseudomonas aeruginosa ATCC 27853 measured after 24 hrs by broth microdilution method; assay type: functional
[41] = Genotoxicity in Salmonella typhimurium TA1535/pSK1002 assessed as DNA-damage activity by measuring beta-galactosidase activity at 75 ug/ml measured by SOS-chromotest relative to solvent control; assay type: toxicity; conditions: salmonella enterica subsp. enterica serovar typhimurium; dose 75 µg/ml
[42] = system: Escherichia coli; test: Antibacterial activity against Escherichia coli assessed as fold increase in MIC after 4 passages by serial dilution method; assay type: functional, organism-based; conditions: time 24.0 hrs
[43] = system: Cell membrane; test: Induction of cell membrane damage in Staphylococcus aureus assessed as decrease in flourescence measured for 35 mins with 5 min interval by DioC2(3) based flourescence method
[44] = system: Pseudomonas aeruginosa; test: Antibacterial activity against clinical isolate Pseudomonas aeruginosa 1945 measured after 24 hrs by broth microdilution method; assay type: functional
[45] = system: Staphylococcus aureus; test: Antibacterial activity against clinical isolate methicillin-resistant Staphylococcus aureus 983 measured after 24 hrs by broth microdilution method; assay type: functional
[46] = Acute toxicity in C57BL/6CBA mouse assessed pale gastric mucosa at 2000 mg/kg, po after 7 days; assay type: organism-based; conditions: in vivo, 168 h, time 7 day
[47] = system: Enterococcus faecalis; test: Antibacterial activity against clinical isolate Enterococcus faecalis 23 measured after 24 hrs by broth microdilution method; assay type: functional
[48] = system: Serratia marcescens; test: Antibacterial activity against clinical isolate Serratia marcescens 1966 measured after 24 hrs by broth microdilution method; assay type: functional
[49] = Acute toxicity in po dosed C57BL/6CBA mouse measured upto 7 days; assay type: organism-based; conditions: in vivo, time <=7 day
[50] = Genotoxicity in Salmonella typhimurium TA1535 assessed as number of revertant by Ames spot test relative to solvent control; assay type: toxicity; conditions: salmonella enterica subsp. enterica serovar typhimurium
[51] = system: Acinetobacter sp.; test: Antibacterial activity against clinical isolate Acinetobacter sp. 3 measured after 24 hrs by broth microdilution method; assay type: functional
[52] = Genotoxicity in Salmonella typhimurium TA1535/pSK1002 assessed as DNA-damage activity by measuring beta-galactosidase activity at 15 ug/ml measured by SOS-chromotest relative to solvent control; assay type: toxicity; conditions: salmonella enterica subsp. enterica serovar typhimurium; dose 15 µg/ml
[53] = Genotoxicity in Salmonella typhimurium TA1535/pSK1002 assessed as DNA-damage activity by measuring beta-galactosidase activity at 7.5 ug/ml measured by SOS-chromotest relative to solvent control; assay type: toxicity; conditions: salmonella enterica subsp. enterica serovar typhimurium; dose 7.5 µg/ml
[54] = system: Staphylococcus intermedius; test: Antibacterial activity against clinical isolate methicillin-resistant Staphylococcus intermedius 1061 measured after 24 hrs by broth microdilution method; assay type: functional

Which MIC [1] does the source give for `CCCCCCCCCCCCCC(=O)NCC[N+](C)(C)Cc1nc(C)c2c(c1CO)COC(C)(C)O2.[Cl-]` here?
The MIC was 32 µg/mL.

And the MIC [2]?
The MIC was over 64 µg/mL.

What about the MIC [3] of the same compound?
The MIC was 32 µg/mL.

What about the MIC [4] of the same compound?
Its MIC is 4 µg/mL.

What about the MIC [5] of the same compound?
Its MIC is 4 µg/mL.

What about the MIC [6] of the same compound?
Its MIC is 2 µg/mL.

And the MIC [7]?
Its MIC is 1 µg/mL.

And the Activity [8]?
Its Activity is “Dose-Dependent Effect”.

And the MIC [9]?
Its MIC is 1 µg/mL.

And the MIC [10]?
Its MIC is 1 µg/mL.

And the Activity [11]?
The Activity was “inactive”.

And the Activity [12]?
Its Activity is “Active”.

And the MIC [13]?
Its MIC is “Active”.

What about the MIC [14] of the same compound?
Its MIC is over 64 µg/mL.

And the Ratio [15]?
The Ratio was 0.4.

And the Ratio [16]?
Its Ratio is 1.9.

What about the MIC [17] of the same compound?
The MIC was 2 µg/mL.

What about the MIC [18] of the same compound?
The MIC was 64 µg/mL.

And the Activity [19]?
The Activity was “Active”.

What about the Ratio [20] of the same compound?
Its Ratio is 0.7.

And the logP [21]?
Its logP is 0.73.

What about the CC50 at 72 h [22] of the same compound?
Its CC50 at 72 h is 1.74 µg/mL.

And the MIC [23]?
The MIC was 8 µg/mL.

What about the LD50 at 336 h [24] of the same compound?
Its LD50 at 336 h is over 2500 mg/kg.

What about the MIC [25] of the same compound?
Its MIC is 4 µg/mL.

And the CC50 at 72 h [26]?
The CC50 at 72 h was 1.32 µg/mL.

What about the MIC [27] of the same compound?
The MIC was 2 µg/mL.

What about the CC50 at 72 h [28] of the same compound?
Its CC50 at 72 h is 3.21 µg/mL.

And the Activity [29]?
The Activity was “inactive”.

What about the Activity [30] of the same compound?
Its Activity is “Active”.

And the Activity [31]?
The Activity was “Toxic”.

What about the Activity [32] of the same compound?
The Activity was “Non-Toxic”.

What about the Activity [33] of the same compound?
The Activity was “Non-Toxic”.

And the MIC [34]?
The MIC was 16 µg/mL.

And the Ratio [35]?
The Ratio was 1.7.

And the Ratio [36]?
Its Ratio is 0.01.

What about the MIC [37] of the same compound?
Its MIC is 2 µg/mL.

What about the Activity [38] of the same compound?
Its Activity is “Active”.

And the MIC [39]?
Its MIC is 4 µg/mL.

What about the MIC [40] of the same compound?
Its MIC is over 64 µg/mL.

What about the Ratio [41] of the same compound?
Its Ratio is 0.7.

And the MIC [42]?
The MIC was “Active”.

And the Activity [43]?
The Activity was “Dose-Dependent Effect”.

What about the MIC [44] of the same compound?
Its MIC is 32 µg/mL.

What about the MIC [45] of the same compound?
Its MIC is 32 µg/mL.

And the Activity [46]?
The Activity was “Toxic”.

And the MIC [47]?
Its MIC is 1 µg/mL.

And the MIC [48]?
Its MIC is over 64 µg/mL.

And the LD50 at 168 h [49]?
The LD50 at 168 h was over 2000 mg/kg.

And the Ratio [50]?
The Ratio was 1.1.

What about the MIC [51] of the same compound?
Its MIC is 32 µg/mL.

What about the Ratio [52] of the same compound?
The Ratio was 1.8.

And the Ratio [53]?
The Ratio was 1.6.

What about the MIC [54] of the same compound?
The MIC was 4 µg/mL.
